From BindingDB's records for patent US9796704 (SYMPHONY EVOLUTION, INC., 2017)

Columns and labels:
Experiment in all cases: AlphaScreen Assay
[1] = biological target: Receptor tyrosine-protein kinase erbB-2 (Homo sapiens, UniProt P04626)
Protocol: (§1) In AlphaScreen, when the donor and acceptor beads are close in proximity, a series of photochemical events will give rise to a fluorescent signal upon light activation. Here we use biotinylated poly-(Glu, Tyr) 4:1 as the kinase substrate, streptavidin-coated donor beads and anti-phosphortyrosine antibody PY100-coated acceptor beads. […] Compounds, ATP, biotinylated poly-(Glu, Tyr) and kinases are mixed in a volume of 20 μL for 1 hr at ambient temperature using Greiner 384-well white clear bottom medium binding plates. Then 10 uL solution containing 15-30 mg/mL AlphaScreen beads, 75 mM Hepes, pH 7.4, 300 mM NaCl, 120 mM EDTA, 0.3% BSA and 0.03% Tween-20 is added to each well. After 2-16 hr incubation of the beads, plates are read in a Perkin Elmer AlphaQuest reader (available from PerkinElmer Life and Analytical Sciences, Inc., of Boston Mass.).

[2] = biological target: Vascular endothelial growth factor receptor 2 (Homo sapiens, UniProt P35968)
Protocol: as §1

Ephrin type-A receptor 2 = Ephrin type-A receptor 2 (Homo sapiens, UniProt P29317)
Sequence of Ephrin type-A receptor 2 (P29317 whole entry): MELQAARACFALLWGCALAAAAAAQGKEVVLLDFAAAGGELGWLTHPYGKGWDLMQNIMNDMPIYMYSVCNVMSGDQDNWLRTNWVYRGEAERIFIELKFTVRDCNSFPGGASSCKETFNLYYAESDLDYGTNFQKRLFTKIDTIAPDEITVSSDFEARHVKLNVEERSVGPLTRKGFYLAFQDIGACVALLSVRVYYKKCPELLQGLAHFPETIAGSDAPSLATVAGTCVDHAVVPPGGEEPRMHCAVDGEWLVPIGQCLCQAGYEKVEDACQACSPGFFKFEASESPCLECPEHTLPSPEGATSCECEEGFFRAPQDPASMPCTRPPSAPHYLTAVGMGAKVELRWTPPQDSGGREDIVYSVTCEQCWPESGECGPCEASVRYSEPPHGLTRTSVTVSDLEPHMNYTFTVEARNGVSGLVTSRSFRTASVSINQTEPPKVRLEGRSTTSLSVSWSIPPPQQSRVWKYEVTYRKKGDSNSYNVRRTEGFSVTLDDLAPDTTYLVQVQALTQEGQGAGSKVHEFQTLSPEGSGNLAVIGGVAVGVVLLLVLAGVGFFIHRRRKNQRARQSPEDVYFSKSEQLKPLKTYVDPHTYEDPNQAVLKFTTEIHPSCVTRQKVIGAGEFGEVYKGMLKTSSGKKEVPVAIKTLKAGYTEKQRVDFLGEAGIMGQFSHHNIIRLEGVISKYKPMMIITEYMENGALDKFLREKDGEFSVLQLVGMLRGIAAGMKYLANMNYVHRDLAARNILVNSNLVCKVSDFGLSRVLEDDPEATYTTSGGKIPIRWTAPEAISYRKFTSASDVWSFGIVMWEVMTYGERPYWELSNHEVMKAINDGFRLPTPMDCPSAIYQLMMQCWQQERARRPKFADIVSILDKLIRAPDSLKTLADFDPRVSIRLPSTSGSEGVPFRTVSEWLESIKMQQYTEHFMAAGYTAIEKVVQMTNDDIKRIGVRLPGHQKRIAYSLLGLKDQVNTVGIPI
Protocol: as §1

Sequence of Vascular endothelial growth factor receptor 2 (P35968 whole entry): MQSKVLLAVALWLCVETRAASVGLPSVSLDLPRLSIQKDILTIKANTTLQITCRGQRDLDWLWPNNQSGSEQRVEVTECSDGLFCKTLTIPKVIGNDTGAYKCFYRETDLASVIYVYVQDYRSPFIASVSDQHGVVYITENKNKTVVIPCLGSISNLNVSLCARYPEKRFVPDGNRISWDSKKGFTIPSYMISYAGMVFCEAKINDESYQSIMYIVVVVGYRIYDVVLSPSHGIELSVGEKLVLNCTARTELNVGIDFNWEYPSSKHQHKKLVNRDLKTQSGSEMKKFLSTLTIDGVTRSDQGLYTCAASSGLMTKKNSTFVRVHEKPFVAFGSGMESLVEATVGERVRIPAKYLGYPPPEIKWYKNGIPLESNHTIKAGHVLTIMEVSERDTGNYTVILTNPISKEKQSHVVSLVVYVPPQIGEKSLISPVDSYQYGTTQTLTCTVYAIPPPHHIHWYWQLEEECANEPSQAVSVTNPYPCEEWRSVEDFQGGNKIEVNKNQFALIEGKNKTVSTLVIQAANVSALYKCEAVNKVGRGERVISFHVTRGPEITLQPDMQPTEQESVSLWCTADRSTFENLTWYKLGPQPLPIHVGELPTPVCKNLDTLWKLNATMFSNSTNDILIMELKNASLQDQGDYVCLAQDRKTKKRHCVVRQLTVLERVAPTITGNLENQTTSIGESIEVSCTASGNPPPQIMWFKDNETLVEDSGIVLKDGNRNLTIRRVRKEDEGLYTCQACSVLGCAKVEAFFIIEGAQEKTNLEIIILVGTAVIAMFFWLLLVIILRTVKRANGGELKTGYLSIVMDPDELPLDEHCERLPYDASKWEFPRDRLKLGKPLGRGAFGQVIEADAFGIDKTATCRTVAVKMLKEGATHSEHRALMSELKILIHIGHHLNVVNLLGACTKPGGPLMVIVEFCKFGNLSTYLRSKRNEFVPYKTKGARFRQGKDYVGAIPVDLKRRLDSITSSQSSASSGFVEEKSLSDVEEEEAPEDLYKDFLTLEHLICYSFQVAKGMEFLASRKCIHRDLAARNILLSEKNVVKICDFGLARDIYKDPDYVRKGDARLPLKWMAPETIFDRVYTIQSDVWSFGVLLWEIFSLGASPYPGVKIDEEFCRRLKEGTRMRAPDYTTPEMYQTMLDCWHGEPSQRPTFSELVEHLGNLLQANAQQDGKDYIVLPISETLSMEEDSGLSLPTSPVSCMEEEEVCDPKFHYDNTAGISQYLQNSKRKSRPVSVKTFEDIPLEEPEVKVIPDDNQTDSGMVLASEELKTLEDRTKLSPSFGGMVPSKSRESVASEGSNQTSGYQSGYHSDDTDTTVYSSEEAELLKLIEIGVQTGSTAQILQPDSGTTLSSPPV
Sequence of Receptor tyrosine-protein kinase erbB-2 (P04626 whole entry): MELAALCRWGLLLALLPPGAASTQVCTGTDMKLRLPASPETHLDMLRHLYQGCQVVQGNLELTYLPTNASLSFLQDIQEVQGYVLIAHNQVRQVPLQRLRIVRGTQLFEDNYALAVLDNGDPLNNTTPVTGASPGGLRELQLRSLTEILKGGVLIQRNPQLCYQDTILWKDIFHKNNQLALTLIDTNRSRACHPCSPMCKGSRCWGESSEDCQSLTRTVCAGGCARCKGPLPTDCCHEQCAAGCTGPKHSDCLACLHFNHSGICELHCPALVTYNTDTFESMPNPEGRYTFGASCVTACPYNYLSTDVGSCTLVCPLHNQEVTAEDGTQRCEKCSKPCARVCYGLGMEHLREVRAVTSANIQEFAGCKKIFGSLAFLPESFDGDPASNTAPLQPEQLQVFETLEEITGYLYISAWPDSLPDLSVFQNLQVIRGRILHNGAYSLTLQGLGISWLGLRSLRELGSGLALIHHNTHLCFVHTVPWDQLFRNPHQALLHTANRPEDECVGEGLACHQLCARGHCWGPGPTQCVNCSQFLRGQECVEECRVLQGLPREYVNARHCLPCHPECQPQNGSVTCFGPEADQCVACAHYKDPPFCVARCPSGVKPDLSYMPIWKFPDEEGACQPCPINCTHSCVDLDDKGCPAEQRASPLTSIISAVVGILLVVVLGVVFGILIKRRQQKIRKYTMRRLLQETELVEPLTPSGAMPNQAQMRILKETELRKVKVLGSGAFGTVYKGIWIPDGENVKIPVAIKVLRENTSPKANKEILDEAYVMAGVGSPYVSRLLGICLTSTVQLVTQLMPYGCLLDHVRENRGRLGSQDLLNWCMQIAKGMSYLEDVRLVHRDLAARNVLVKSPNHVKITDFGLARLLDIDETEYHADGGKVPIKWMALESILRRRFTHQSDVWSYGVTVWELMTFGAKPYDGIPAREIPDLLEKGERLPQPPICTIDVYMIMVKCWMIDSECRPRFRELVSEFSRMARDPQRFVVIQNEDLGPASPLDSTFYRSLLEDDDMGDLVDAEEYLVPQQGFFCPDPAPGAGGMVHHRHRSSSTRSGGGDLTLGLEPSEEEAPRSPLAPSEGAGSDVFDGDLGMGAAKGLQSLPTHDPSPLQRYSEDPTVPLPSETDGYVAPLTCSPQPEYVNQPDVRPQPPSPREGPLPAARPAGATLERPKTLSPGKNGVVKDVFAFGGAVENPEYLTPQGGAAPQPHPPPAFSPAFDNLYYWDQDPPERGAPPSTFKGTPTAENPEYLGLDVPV

| IC50 [1] | IC50 [2] | IC50 (Ephrin type-A receptor 2) | SMILES |
| --- | --- | --- | --- |
| – | in the range around 525 nM | in the range around 525 nM | COc1cc2c(Nc3ccc(Cl)c(Cl)c3)ncnc2cc1OCc1ccc2nonc2c1 [US9796704, Entry 163] |
| – | in the range around 525 nM | in the range around 525 nM | COc1cc2c(Nc3ccc(Cl)c(Cl)c3)ncnc2cc1OCc1c(-c2ccccc2)nn(C)c1Cl [US9796704, Entry 175] |
| in the range around 525 nM | – | – | COc1cc2c(Nc3ccc(Cl)c(Cl)c3)ncnc2cc1OCc1nc(-c2ccncc2)cs1 [US9796704, Entry 203] |
| in the range around 525 nM | in the range around 525 nM | – | CCN1CCN(c2noc(COc3cc4ncnc(Nc5ccc(Cl)c(Cl)c5)c4cc3OC)n2)CC1 [US9796704, Entry 220] |
| in the range around 525 nM | in the range around 525 nM | – | COc1cc2c(Nc3ccc(Cl)c(Cl)c3)ncnc2cc1OCc1csc(-c2ccc(C(F)(F)F)cc2)n1 [US9796704, Entry 222] |
| in the range around 525 nM | in the range around 525 nM | – | COc1cc2c(Nc3ccc(Cl)c(Cl)c3)ncnc2cc1OCc1csc(-c2ccc(Cl)cc2)n1 [US9796704, Entry 223] |
| in the range around 525 nM | in the range around 525 nM | – | COc1cc2c(Nc3ccc(Cl)c(Cl)c3)ncnc2cc1OCc1noc(-c2c(C)noc2C)n1 [US9796704, Entry 224] |
| in the range around 10500 nM | in the range around 10500 nM | – | COc1cc2c(Nc3ccc(Cl)c(Cl)c3)ncnc2cc1OCc1csc2ccc(Cl)cc12 [US9796704, Entry 225] |
| in the range around 525 nM | in the range around 525 nM | – | COc1cc2c(Nc3ccc(Cl)c(Cl)c3)ncnc2cc1OCc1noc(-c2ccccc2OC)n1 [US9796704, Entry 227] |
| in the range around 525 nM | in the range around 525 nM | – | COc1cc2c(Nc3ccc(Cl)c(Cl)c3)ncnc2cc1OCc1nnc(-c2ccc(C)cc2)o1 [US9796704, Entry 228] |
| in the range around 525 nM | – | – | COc1cc2c(Nc3ccc(Cl)c(Cl)c3)ncnc2cc1OCc1cc(Br)cc(Br)c1 [US9796704, Entry 232] |
| in the range around 525 nM | – | – | COc1cc2c(Nc3ccc(Cl)c(Cl)c3)ncnc2cc1OCc1noc(-c2ccccc2)n1 [US9796704, Entry 235] |
| in the range around 10500 nM | – | – | CCN1CCCC(c2nc(COc3cc4ncnc(Nc5ccc(Cl)c(Cl)c5)c4cc3OC)no2)C1 (stereo not drawn) [US9796704, Entry 239] |
| in the range around 525 nM | – | – | CCN1CCC(c2nc(COc3cc4ncnc(Nc5ccc(Cl)c(Cl)c5)c4cc3OC)cs2)CC1 [US9796704, Entry 242] |

Continued, compound first:

| SMILES | IC50 [1] | IC50 [2] | IC50 (Ephrin type-A receptor 2) |
| --- | --- | --- | --- |
| COc1cc2c(Nc3ccc(Cl)c(Cl)c3)ncnc2cc1OCC1CN2CCOCC2CO1 (stereo not drawn) [US9796704, Entry 25] | in the range around 10500 nM | – | – |
| COc1cc2c(Nc3ccc(Cl)c(Cl)c3)ncnc2cc1OC[C@@H]1CO[C@H]2[C@@H]1OC[C@@H]2OC [US9796704, Entry 42] | in the range around 10500 nM | – | – |
| COc1cc2c(Nc3ccc(Cl)c(Cl)c3F)ncnc2cc1OCC1CO[C@@H]2[C@@H](OC)CO[C@H]12 (stereo partly drawn) [US9796704, Entry 43] | in the range around 10500 nM | – | – |
| COc1cc2c(Nc3ccc(F)c(F)c3F)ncnc2cc1O[C@@H]1CO[C@@H]2[C@H]1OC[C@H]2F [US9796704, Entry 84] | – | in the range around 525 nM | in the range around 525 nM |
| COc1cc2c(Nc3cccc(F)c3F)ncnc2cc1O[C@@H]1CO[C@@H]2[C@H]1OC[C@H]2F [US9796704, Entry 92] | – | in the range around 525 nM | in the range around 525 nM |
| COc1cc2c(Nc3ccc(Br)c(Cl)c3Cl)ncnc2cc1O[C@@H]1CO[C@@H]2[C@H]1OC[C@H]2F [US9796704, Entry 103] | – | in the range around 525 nM | in the range around 525 nM |
| COc1cc2c(Nc3cc(Cl)c(Cl)cc3F)ncnc2cc1O[C@@H]1CO[C@@H]2[C@H]1OC[C@H]2F [US9796704, Entry 105] | – | in the range around 525 nM | in the range around 525 nM |
| COc1cc2c(Nc3cccc(Cl)c3)ncnc2cc1O[C@@H]1CO[C@@H]2[C@H]1OC[C@H]2F [US9796704, Entry 114] | – | in the range around 10500 nM | in the range around 525 nM |
| COc1cc2c(Nc3ccc(C(F)(F)F)cc3Br)ncnc2cc1O[C@@H]1CO[C@@H]2[C@H]1OC[C@H]2F [US9796704, Entry 125] | in the range around 525 nM | – | – |
| COc1cc2c(Nc3cccc(Br)c3)ncnc2cc1O[C@@H]1CO[C@@H]2[C@H]1OC[C@H]2F [US9796704, Entry 129] | – | in the range around 525 nM | in the range around 525 nM |
| COc1cc(OC)c(Nc2ncnc3cc(O[C@@H]4CO[C@@H]5[C@H]4OC[C@H]5F)c(OC)cc23)cc1Cl [US9796704, Entry 135] | – | in the range around 525 nM | in the range around 525 nM |
| COc1cc2c(Nc3ccc(F)c(Cl)c3F)ncnc2cc1O[C@@H]1CO[C@@H]2[C@H]1OC[C@H]2F [US9796704, Entry 137] | – | in the range around 525 nM | in the range around 525 nM |
| COc1cc2c(Nc3ccc(Cl)c(Cl)c3)ncnc2cc1OCc1nc(CN(C)C)no1 [US9796704, Entry 139] | – | in the range around 525 nM | in the range around 525 nM |
| COc1cc2c(Nc3ccc(Cl)c(Cl)c3)ncnc2cc1OCc1noc(C2CCNCC2)n1 [US9796704, Entry 141] | – | in the range around 525 nM | in the range around 525 nM |
| COc1cc2c(Nc3ccc(Cl)c(Cl)c3)ncnc2cc1OCc1noc(C2CCN(C)CC2)n1 [US9796704, Entry 142] | – | in the range around 525 nM | in the range around 525 nM |
| COc1cc2c(Nc3ccc(Cl)c(Cl)c3)ncnc2cc1OCc1nc(CN2CCOCC2)no1 [US9796704, Entry 143] | – | in the range around 525 nM | in the range around 525 nM |
| COc1cc2c(Nc3ccc(Cl)c(Cl)c3)ncnc2cc1OCc1noc(C2CCCCN2)n1 (stereo not drawn) [US9796704, Entry 145] | – | in the range around 525 nM | in the range around 10500 nM |
| COc1cc2c(Nc3ccc(Cl)c(Cl)c3)ncnc2cc1OCC1CN(Cc2ccccc2)CCO1 (stereo not drawn) [US9796704, Entry 147] | – | in the range around 525 nM | in the range around 10500 nM |
| COc1cc2c(Nc3ccc(Cl)c(Cl)c3)ncnc2cc1OCc1noc(C2CCCNC2)n1 (stereo not drawn) [US9796704, Entry 153] | – | in the range around 525 nM | in the range around 525 nM |
| COc1cc2c(Nc3ccc(Cl)c(Cl)c3)ncnc2cc1OCc1noc(C2CCCCN2C)n1 (stereo not drawn) [US9796704, Entry 154] | – | in the range around 525 nM | in the range around 525 nM |
| COc1cc2c(Nc3ccc(Cl)c(Cl)c3)ncnc2cc1OCc1noc(C2CCCN(C)C2)n1 (stereo not drawn) [US9796704, Entry 156] | – | in the range around 525 nM | in the range around 525 nM |
| COc1cc2c(Nc3ccc(Cl)c(Cl)c3)ncnc2cc1OCc1cc(C)on1 [US9796704, Entry 160] | – | in the range around 525 nM | in the range around 525 nM |
